In brackets after ≈: the same amount, converted by molar mass.
Key:
[1] = Inhibition of Plasmodium falciparum PKG using FAM-labeled PKAtide or IP3R-derived peptide as a substrate preincubated for 15 mins followed by substrate addition and incubated for 60 mins by IMAP assay
Plasmodium falciparum [2] = assay: Inhibition of Plasmodium falciparum PKG using FAM-labeled PKAtide or IP3R-derived peptide as a substrate at 1 uM preincubated for 15 mins followed by substrate addition and incubated for 60 mins by IMAP assay relative to control; settings: time 75.0 min
[3] = Toxicity against non-human primate hepatocytes infected with liver stage Plasmodium cynomolgi B incubated for 4 days from sporozoite addition; assay type: ADME, tissue-based, Hepatocyte; settings: primates, 96 h, time 4 day
Plasmodium cynomolgi [4] = assay: Antiplasmodial activity against liver stage Plasmodium cynomolgi B infected in non-human primate hepatocytes assessed as inhibition of hypnozoite development incubated for 4 days from sporozoite addition by prophylactic assay; assay type: functional, organism-based; settings: Hepatocyte, 96 h
[5] = Toxicity against non-human primate hepatocytes infected with liver stage Plasmodium cynomolgi B incubated for 4 days starting on day 4 post-sporozoite inoculation; assay type: ADME, tissue-based, Hepatocyte; settings: primates, 96 h, time 4 day
Plasmodium cynomolgi [6] = assay: Antiplasmodial activity against liver stage Plasmodium cynomolgi B infected in non-human primate hepatocytes assessed as inhibition of liver schizonts development incubated for 4 days from sporozoite addition by prophylactic assay; assay type: functional, organism-based; settings: Hepatocyte, 96 h
Plasmodium cynomolgi [7] = assay: Antiplasmodial activity against liver stage Plasmodium cynomolgi B infected in non-human primate hepatocytes assessed as reduction in liver hypnozoites development incubated for 4 days starting on day 4 post-sporozoite inoculation by […] cure mode analysis; assay type: functional, organism-based; settings: Hepatocyte, 96 h
Plasmodium cynomolgi [8] = assay: Antiplasmodial activity against liver stage Plasmodium cynomolgi B infected in non-human primate hepatocytes assessed as reduction in liver schizonts development incubated for 4 days starting on day 4 post-sporozoite inoculation by […] cure mode analysis; assay type: functional, organism-based; settings: Hepatocyte, 96 h
Cytochrome P450 3A4 = Cytochrome P450 3A4 (Homo sapiens, UniProt P08684); assay: Inhibition of human CYP3A4 using testosterone as a substrate by LC/MS/MS analysis; assay type: ADME
[9] = Metabolic stability in mouse liver microsomes assessed as half life incubated for 60 mins in the presence of NADPH by LC-MS/MS analysis; assay type: ADME, Microsome
Cytochrome P450 2D6 = Cytochrome P450 2D6 (Homo sapiens, UniProt P10635); assay: Inhibition of human CYP2D6 using 3-[2-(N,N-diethylamino)ethyl]-7-methoxy-4-methyl coumarin as a substrate incubated for 45 mins by fluorescence based analysis; assay type: ADME
[10] = Kinetic aqueous solubility of the compound at pH 7.4 measured after 1 hr by UV/LC-MS/MS analysis; assay type: physicochemical; settings: buffer, read-out: Kinetic_solubility
Cytochrome P450 2C9 = Cytochrome P450 2C9 (Homo sapiens, UniProt P11712); assay: Inhibition of human CYP2C9 using 7-methoxy-4(trifluoromethyl coumarin) as a substrate incubated for 15 mins by fluorescence based analysis; assay type: ADME
Plasmodium falciparum [11] = assay: Antiplasmodial activity against asexual blood stage Plasmodium falciparum 3D7; assay type: functional, organism-based
Plasmodium berghei [12] = assay: Antiplasmodial activity against luciferase expressing Plasmodium berghei hepatic stage sporozoites infected in HepG2 cells assessed as decrease in parasite infection incubated for 16 hrs followed by replacement with compound free medium measured after 48 hrs post infection by IVIS spectrum in vivo imaging analysis; assay type: functional, organism-based
[13] = Metabolic stability in human liver microsomes assessed as half life incubated for 60 mins in the presence of NADPH by LC-MS/MS analysis; assay type: ADME, Microsome
Plasmodium berghei [14] = assay: (§1) Antiplasmodial activity against luciferase expressing Plasmodium berghei sporozoites infected in HepG2 cells assessed as decrease in parasite infection at 10 uM incubated for 16 hrs followed by replacement with compound free medium measured after 48 hrs post infection by IVIS spectrum in vivo imaging analysis relative to control; assay type: functional; settings: read-out: INH
Plasmodium berghei [15] = assay: as §1, with “2” for “10”, “medium and” for “medium”; assay type: functional; settings: read-out: INH
Homo sapiens = organism: Homo sapiens; assay: Inhibition of human PKG using FAM-labeled PKAtide or IP3R-derived peptide as a substrate at 10 uM preincubated for 15 mins followed by substrate addition and incubated for 60 mins by IMAP assay relative to control; settings: time 75.0 min
[16] = test system: cGMP-dependent protein kinase (Plasmodium falciparum), W7JX98 [T618Q]; assay: Inhibition of Plasmodium falciparum PKG T618Q mutant using FAM-labeled PKAtide or IP3R-derived peptide as a substrate at 10 uM preincubated for 15 mins followed by substrate addition and incubated for 60 mins by IMAP assay relative to control; settings: time 75.0 min
[17] = Inhibition of Plasmodium falciparum PKG

Sequence of Cytochrome P450 2C9 (P11712 whole entry): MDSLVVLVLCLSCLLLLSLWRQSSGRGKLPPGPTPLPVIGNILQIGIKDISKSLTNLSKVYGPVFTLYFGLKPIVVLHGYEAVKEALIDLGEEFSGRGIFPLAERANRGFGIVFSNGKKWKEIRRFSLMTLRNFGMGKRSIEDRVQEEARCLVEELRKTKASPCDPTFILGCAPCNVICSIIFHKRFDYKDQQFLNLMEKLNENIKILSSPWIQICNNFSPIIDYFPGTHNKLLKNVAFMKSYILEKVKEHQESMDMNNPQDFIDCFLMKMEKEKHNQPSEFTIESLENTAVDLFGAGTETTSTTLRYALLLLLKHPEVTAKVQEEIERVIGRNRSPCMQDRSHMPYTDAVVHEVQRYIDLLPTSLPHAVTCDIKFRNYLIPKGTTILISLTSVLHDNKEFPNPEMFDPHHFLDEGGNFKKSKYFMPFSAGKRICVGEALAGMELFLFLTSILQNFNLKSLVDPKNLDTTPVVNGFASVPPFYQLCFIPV
Sequence of Cytochrome P450 2D6 (P10635 whole entry): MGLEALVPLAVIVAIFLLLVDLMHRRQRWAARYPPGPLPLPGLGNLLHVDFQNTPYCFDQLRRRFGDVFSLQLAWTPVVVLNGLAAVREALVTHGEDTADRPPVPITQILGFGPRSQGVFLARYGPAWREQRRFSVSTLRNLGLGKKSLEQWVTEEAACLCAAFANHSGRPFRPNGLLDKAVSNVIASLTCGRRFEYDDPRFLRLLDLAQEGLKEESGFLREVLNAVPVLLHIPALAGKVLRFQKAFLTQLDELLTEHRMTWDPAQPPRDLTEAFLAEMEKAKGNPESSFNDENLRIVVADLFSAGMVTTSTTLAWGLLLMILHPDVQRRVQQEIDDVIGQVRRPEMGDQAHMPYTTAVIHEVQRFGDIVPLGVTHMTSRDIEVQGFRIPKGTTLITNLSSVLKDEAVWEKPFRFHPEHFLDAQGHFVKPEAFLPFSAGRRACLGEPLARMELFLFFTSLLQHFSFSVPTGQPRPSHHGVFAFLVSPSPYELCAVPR
Sequence of Cytochrome P450 3A4 (P08684 whole entry): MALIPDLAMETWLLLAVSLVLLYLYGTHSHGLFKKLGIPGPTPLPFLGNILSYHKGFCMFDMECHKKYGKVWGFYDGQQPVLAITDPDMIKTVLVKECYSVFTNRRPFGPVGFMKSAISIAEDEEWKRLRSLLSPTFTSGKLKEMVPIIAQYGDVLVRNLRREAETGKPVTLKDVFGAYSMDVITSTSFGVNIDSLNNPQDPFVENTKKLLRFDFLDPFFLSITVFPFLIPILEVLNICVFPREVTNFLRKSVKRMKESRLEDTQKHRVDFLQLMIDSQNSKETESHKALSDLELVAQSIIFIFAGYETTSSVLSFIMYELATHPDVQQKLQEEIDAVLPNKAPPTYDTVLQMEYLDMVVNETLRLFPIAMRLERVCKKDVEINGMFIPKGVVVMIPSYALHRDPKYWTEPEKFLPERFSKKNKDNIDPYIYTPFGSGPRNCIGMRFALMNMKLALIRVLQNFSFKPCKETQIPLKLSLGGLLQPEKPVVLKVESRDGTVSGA
Sequence of cGMP-dependent protein kinase (Plasmodium falciparum), W7JX98 [T618Q] (W7JX98 whole entry T618Q): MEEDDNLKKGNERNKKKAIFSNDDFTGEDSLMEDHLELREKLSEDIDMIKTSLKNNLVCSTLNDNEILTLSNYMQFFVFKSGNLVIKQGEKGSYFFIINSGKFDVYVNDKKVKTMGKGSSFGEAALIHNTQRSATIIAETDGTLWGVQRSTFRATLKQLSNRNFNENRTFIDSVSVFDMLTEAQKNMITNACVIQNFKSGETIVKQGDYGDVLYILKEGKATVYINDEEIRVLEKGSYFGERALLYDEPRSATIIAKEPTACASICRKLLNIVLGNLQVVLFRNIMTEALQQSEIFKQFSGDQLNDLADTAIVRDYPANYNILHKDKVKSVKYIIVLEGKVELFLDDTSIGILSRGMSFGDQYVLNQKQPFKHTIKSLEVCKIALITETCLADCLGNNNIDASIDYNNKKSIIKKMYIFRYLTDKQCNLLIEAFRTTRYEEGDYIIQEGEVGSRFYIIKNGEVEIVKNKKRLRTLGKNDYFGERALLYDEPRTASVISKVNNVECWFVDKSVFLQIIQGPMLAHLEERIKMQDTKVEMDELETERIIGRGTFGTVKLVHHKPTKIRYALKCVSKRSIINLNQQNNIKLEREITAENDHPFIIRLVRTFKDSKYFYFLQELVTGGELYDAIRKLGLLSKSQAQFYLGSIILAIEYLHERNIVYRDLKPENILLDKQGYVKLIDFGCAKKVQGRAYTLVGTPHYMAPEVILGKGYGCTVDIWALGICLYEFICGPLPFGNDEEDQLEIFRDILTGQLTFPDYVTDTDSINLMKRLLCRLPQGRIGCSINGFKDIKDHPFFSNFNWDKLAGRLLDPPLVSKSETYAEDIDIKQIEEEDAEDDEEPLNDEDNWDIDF

Structure (SMILES): Cc1cn(-c2ccnc(N[C@@H]3CCN(C(=O)c4ccn(C)n4)C3)n2)c(-c2ccccc2)n1
- IC50 [1]: 1000 nM

Structure (SMILES): Cc1cn(-c2ccnc(N[C@@H]3CCN(C(=O)c4nccs4)C3)n2)c(-c2cccc(OC(F)(F)F)c2)n1
- IC50 [1]: 150 nM

Structure (SMILES): Cc1cn(-c2ccnc(N[C@@H]3CCN(C(=O)c4nccs4)C3)n2)c(-c2ccc(Cl)cc2)n1
- IC50 [1]: 1160 nM

Structure (SMILES): Cc1cn(-c2ccnc(NC3CCN(C(=O)c4nccs4)CC3)n2)c(-c2ccccc2)n1
- inhibition (Plasmodium falciparum [2]): 5%

Structure (SMILES): Cc1cn(-c2ccnc(N[C@@H]3CCN(C(=O)c4nccs4)C3)n2)c(-c2ccccc2Cl)n1
- inhibition (Plasmodium falciparum [2]): 47%

Structure (SMILES): CO[C@@H]1[C@@H](OC)[C@H](C)C(O)(CC(=O)O)O[C@H]1[C@H](C)[C@H]1O[C@@]2(CC[C@@](C)([C@H]3CC[C@@](C)([C@@H]4O[C@@H]([C@H]5OC(C)(O)[C@H](C)C[C@@H]5C)C[C@@H]4O[C@@H]4C[C@H](OC)[C@@H](OC)[C@H](C)O4)O3)O2)C[C@H](O)[C@H]1C (stereo partly drawn)
- Activity [3]: 5.78 µM
- IC50 (Plasmodium cynomolgi [4]): 20 nM
- Activity [5]: 11.91 µM
- IC50 (Plasmodium cynomolgi [6]): 10 nM
- IC50 (Plasmodium cynomolgi [7]): 30 nM
- IC50 (Plasmodium cynomolgi [8]): 30 nM

Structure (SMILES): O=C(c1nccs1)N1CC[C@@H](Nc2nccc(-n3cc(C4CC4)nc3-c3ccccc3)n2)C1
- IC50 (Cytochrome P450 3A4): 290 nM
- half-life [9]: < 2 min
- IC50 (Cytochrome P450 2D6): > 10000 nM
- solubility kinetic at 1 h [10]: 92 µM (≈ 42.1 µg/mL)
- IC50 [1]: 100 nM
- IC50 (Cytochrome P450 2C9): > 10000 nM
- EC50 (Plasmodium falciparum [11]): 7600 nM
- EC50 (Plasmodium berghei [12]): 20000 nM
- half-life [13]: 4.8 min

Structure (SMILES): Cc1cn(-c2ccnc(NCC3CCCN3C(=O)c3nccs3)n2)c(-c2ccccc2)n1 (stereo not drawn)
- inhibition (Plasmodium falciparum [2]): 3%

Structure (SMILES): Cc1cn(-c2ccnc(N[C@H]3CCN(C(=O)c4nccs4)C3)n2)c(-c2ccccc2)n1
- inhibition (Plasmodium falciparum [2]): 4%

Structure (SMILES): O=C(c1nccs1)N1CC[C@@H](Nc2nccc(-n3cc(C4CC4)nc3-c3cccc(Cl)c3)n2)C1
- percent inhibition of parasite infection at 10 µM (Plasmodium berghei [14]): 93%
- IC50 (Cytochrome P450 3A4): 190 nM
- half-life [9]: < 2 min
- Activity [3]: > 20 µM
- IC50 (Cytochrome P450 2D6): > 10000 nM
- solubility kinetic at 1 h [10]: 28 µM (≈ 13.8 µg/mL)
- IC50 (Plasmodium cynomolgi [4]): 9880 nM
- Activity [5]: > 20 µM
- IC50 [1]: 60 nM
- IC50 (Cytochrome P450 2C9): 2800 nM
- EC50 (Plasmodium falciparum [11]): 3300 nM
- percent decrease in parasite infection in HepG2 cells at 2 µM (Plasmodium berghei [15]): 94%
- IC50 (Plasmodium cynomolgi [6]): 930 nM
- EC50 (Plasmodium berghei [12]): 5700 nM
- half-life [13]: 3.7 min
- IC50 (Plasmodium cynomolgi [7]): > 20000 nM
- IC50 (Plasmodium cynomolgi [8]): 4620 nM

Structure (SMILES): Cc1cn(-c2ccnc(N[C@@H]3CCN(C(=O)c4nccs4)C3)n2)c(-c2ccccc2)n1
- percent inhibition of parasite infection at 10 µM (Plasmodium berghei [14]): 89%
- inhibition (Homo sapiens): 3%
- half-life [9]: < 2 min
- Activity [3]: > 20 µM
- solubility kinetic at 1 h [10]: 200 µM (≈ 86.3 µg/mL)
- IC50 (Plasmodium cynomolgi [4]): > 20000 nM
- Activity [5]: > 20 µM
- IC50 [1]: 320 nM
- inhibition [16]: 3%
- percent decrease in parasite infection in HepG2 cells at 2 µM (Plasmodium berghei [15]): 78%
- IC50 (Plasmodium cynomolgi [6]): 7910 nM
- half-life [13]: < 2 min
- IC50 (Plasmodium cynomolgi [7]): > 20000 nM
- IC50 (Plasmodium cynomolgi [8]): 11600 nM

Structure (SMILES): Cc1cn(-c2ccnc(NCC3CCN3C(=O)c3nccs3)n2)c(-c2ccccc2)n1 (stereo not drawn)
- inhibition (Plasmodium falciparum [2]): 2%

Structure (SMILES): CCN(CC)Cc1onc(-c2cccc(Cl)c2)c1-c1ccnc(N[C@@H]2CCN(C(=O)c3ccsn3)C2)n1
- IC50 [17]: 17 nM
- percent decrease in parasite infection in HepG2 cells at 2 µM (Plasmodium berghei [15]): 0%

Structure (SMILES): Cc1cn(-c2ccnc(NCC3(NC(=O)c4nccs4)CC3)n2)c(-c2ccccc2)n1
- inhibition (Plasmodium falciparum [2]): 6%

Structure (SMILES): CN1CCC(c2cc(-c3ccc(F)cc3)c(-c3ccncc3)[nH]2)CC1
- percent inhibition of parasite infection at 10 µM (Plasmodium berghei [14]): 94%
- IC50 [17]: 20 nM
- IC50 [1]: 22 nM
- EC50 (Plasmodium falciparum [11]): 150 nM
- percent decrease in parasite infection in HepG2 cells at 2 µM (Plasmodium berghei [15]): 91%
- EC50 (Plasmodium berghei [12]): 300 nM

Structure (SMILES): COc1cc(C)c2c(Oc3cccc(C(F)(F)F)c3)c(OC)cc(NC(C)CCCN)c2n1 (stereo not drawn) [TAFENOQUINE]
- Activity [3]: 13.82 µM
- IC50 (Plasmodium cynomolgi [4]): 140 nM
- Activity [5]: 18.61 µM
- IC50 (Plasmodium cynomolgi [6]): 190 nM
- IC50 (Plasmodium cynomolgi [7]): 3500 nM
- IC50 (Plasmodium cynomolgi [8]): 3610 nM

Structure (SMILES): CCN(CC)Cc1onc(-c2cccc(Cl)c2)c1-c1ccnc(N[C@@H]2CCN(C(=O)c3ccon3)C2)n1
- IC50 [17]: 13 nM
- percent decrease in parasite infection in HepG2 cells at 2 µM (Plasmodium berghei [15]): 52%

Structure (SMILES): Cc1cn(-c2ccnc(NC3CCCN(C(=O)c4nccs4)C3)n2)c(-c2ccccc2)n1 (stereo not drawn)
- inhibition (Plasmodium falciparum [2]): 4%

Structure (SMILES): COc1cccc(-c2nc(C)cn2-c2ccnc(N[C@@H]3CCN(C(=O)c4nccs4)C3)n2)c1
- IC50 [1]: 86 nM

— ChEMBL document CHEMBL4831562, “Discovery of Imidazole-Based Inhibitors of Plasmodium falciparum cGMP-Dependent Protein Kinase” (ACS Med Chem Lett, 2021)
